Laboratory results as given in ChEMBL document CHEMBL4814056, “Discovery of chalcone analogues as novel NLRP3 inflammasome inhibitors with potent anti-inflammation activities” (Eur J Med Chem, 2021).
Calls of active or inactive are those of the source. No cut-off for these calls is given here.

What was measured:
[1] = target: T1, NACHT, LRR and PYD domains-containing protein 3 (Mus musculus, UniProt Q8R4B8); experiment: Inhibition of NLRP3 in mouse J774A.1 cells infected with FLA-ST assessed as inhibition of LPS- induced IL-1beta production by ELISA; assay type: cell-based, J774.A1
[2] = Cytotoxicity against human HEK293T cells assessed as reduction in cell viability at 24 hrs by CCK8 assay; assay type: cell-based, HEK-293T; details: read-out: TD50
[3] = Selectivity index, ratio of TC50 for cytotoxicity against human HEK293T cells to IC50 for inhibition of NLRP3 in mouse J774A.1 cells
[4] = Stability assessed as glutathione reactivity of compound incubated for 24 hrs; assay type: physicochemical
[5] = Solubility of compound; assay type: physicochemical
[6] = target: T1, NACHT, LRR and PYD domains-containing protein 3; experiment: (§1) Inhibition of NLRP3 inflammasome activation in LPS/nigericin-treated mouse BMDM cells assessed as inhibition of LPS and nigericin-induced IL-1beta production pre-treated for 1 hr measured after 1 hr of stimulation by ELISA; assay type: cell-based
J774.A1 [7] = experiment: Cytotoxicity against mouse J774A.1 cells assessed as reduction in cell viability at 2 hrs by CellTiter 96 AQueous One solution cell proliferation assay; assay type: cell-based; details: j774.a1, 2 h
J774.A1 [8] = experiment: Cytotoxicity against mouse J774A.1 cells assessed as reduction in cell viability at 24 hrs by CCK8 assay; assay type: cell-based; details: j774.a1, 24 h
[9] = target: NACHT, LRR and PYD domains-containing protein 3 (Mus musculus) (UniProt Q8R4B8); experiment: Inhibition of NLRP3 inflammasome activation in LPS/nigericin-treated mouse J774A.1 cells assessed as inhibition of LPS and nigericin-induced IL-1beta production pre-treated for 1 hr measured after 1 hr of stimulation by ELISA; details: J774.A1, dose 1-5 µM, time 2.0 hrs
[10] = target: NACHT, LRR and PYD domains-containing protein 3 (Mus musculus) (UniProt Q8R4B8); experiment: as §1; assay type: cell-based; details: dose 1-5 µM, time 2.0 hrs
[11] = target: NACHT, LRR and PYD domains-containing protein 3 (Mus musculus) (UniProt Q8R4B8); experiment: Inhibition of NLRP3 inflammasome activation in LPS/nigericin-treated mouse J774A.1 cells assessed as blockade of caspase 1 p20 maturation pre-treated for 1 hr measured after 1 hr of stimulation by Western blot analysis; details: J774.A1, dose 1-5 µM, time 2.0 hrs
[12] = target: NACHT, LRR and PYD domains-containing protein 3 (Mus musculus) (UniProt Q8R4B8); experiment: Inhibition of NLRP3 inflammasome activation in LPS/nigericin-treated mouse J774A.1 cells assessed as blockade of IL-1beta secretion pre-treated for 1 hr measured after 1 hr of stimulation by Western blot analysis; details: J774.A1, dose 1-5 µM, time 2.0 hrs
[13] = target: NACHT, LRR and PYD domains-containing protein 3 (Mus musculus) (UniProt Q8R4B8); experiment: Inhibition of NLRP3 inflammasome activation in LPS/nigericin-treated mouse J774A.1 cells assessed as effect on pro-IL-1-beta pre-treated for 1 hr at 1 to 5 uM measured after 1 hr of stimulation by Western blot analysis; details: J774.A1, dose 1-5 µM, time 2.0 hrs
[14] = target: NACHT, LRR and PYD domains-containing protein 3 (Mus musculus) (UniProt Q8R4B8); experiment: Inhibition of NLRP3 inflammasome activation in LPS/nigericin-treated mouse J774A.1 cells assessed as effect on […] in cell lysate pre-treated for 1 hr at 1 to 5 uM measured after 1 hr of stimulation by Western blot analysis; assay type: subcellular; details: J774.A1, dose 1-5 µM, time 2.0 hrs
[15] = target: T2, Interferon-inducible protein AIM2 (Mus musculus) (UniProt Q91VJ1); experiment: Inhibition of AIM2 inflammasome activation in LPS-induced mouse […] cells infected with […] pre-treated for 1 hr at 1 to 5 uM measured after 1 hr of stimulation; details: J774.A1, dose 1-5 µM, time 2.0 hrs
T2 sequence (whole entry): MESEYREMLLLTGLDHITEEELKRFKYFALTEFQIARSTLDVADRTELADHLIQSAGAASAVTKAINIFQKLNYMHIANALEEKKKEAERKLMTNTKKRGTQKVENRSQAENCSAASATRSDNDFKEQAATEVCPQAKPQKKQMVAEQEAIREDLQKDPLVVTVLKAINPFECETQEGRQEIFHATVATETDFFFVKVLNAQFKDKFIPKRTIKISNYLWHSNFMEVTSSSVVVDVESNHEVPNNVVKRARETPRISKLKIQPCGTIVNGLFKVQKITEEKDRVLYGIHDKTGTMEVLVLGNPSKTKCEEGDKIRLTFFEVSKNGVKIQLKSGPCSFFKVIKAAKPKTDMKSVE

[16] = target: NLR family CARD domain-containing protein 4 (Mus musculus) (UniProt Q3UP24); experiment: Inhibition of NLRC4 inflammasome activation in LPS-induced mouse […] cells infected with […] pre-treated for 1 hr at 1 to 5 uM measured after 1 hr of stimulation; details: J774.A1, dose 1-5 µM, time 2.0 hrs
J774.A1 [17] = experiment: Inhibition of reactive oxygen species generation in LPS/nigericin-induced mouse J774.A1 cells pre-treated for 1 hr at 1 to 5 uM measured after 1 hr of stimulation by DCFH-DA staining-based method relative to control; assay type: functional, cell-based; details: dose 1-5 µM, time 2.0 hrs
J774.A1 [18] = experiment: Inhibition of reactive oxygen species generation in LPS/nigericin-induced mouse J774.A1 cells pre-treated for 1 hr at 1 to 5 uM measured after 1 hr of stimulation by fluorescence microplate-reader relative to control; assay type: functional, cell-based; details: dose 1-5 µM, time 2.0 hrs
Mus musculus [19] = experiment: Antiinflammatory activity in po dosed LPS-induced sepsis C57BL/6 mouse model assessed as reduction in IL-1beta secretion in serum measured after 6 hrs by ELISA; assay type: functional, organism-based; details: dose 25-50 mg/kg
Mus musculus [20] = experiment: Antiinflammatory activity in po dosed LPS-induced sepsis C57BL/6 mouse model assessed as reduction in IL-1beta secretion in peritonial fluid measured after 6 hrs by ELISA; assay type: functional, organism-based; details: dose 25-50 mg/kg
Mus musculus [21] = experiment: Anti-colitis activity against DSS-induced colitis C57BL/6 mouse model assessed as reduction in colon length treated orally once daily for 14 days started from day 3 post DSS-challenge; assay type: functional, organism-based; details: dose 25-50 mg/kg, time 14.0 day
Mus musculus [22] = experiment: Anti-colitis activity against DSS-induced colitis C57BL/6 mouse model assessed as reduction in fecal occult blood treated orally once daily for 14 days started from day 3 post DSS-challenge; assay type: functional, organism-based; details: dose 25-50 mg/kg, time 14.0 day
Mus musculus [23] = experiment: Anti-colitis activity against DSS-induced colitis C57BL/6 mouse model assessed as reduction in IL-1 beta in colonic tissue treated orally once daily for 14 days started from day 3 post DSS-challenge by ELISA relative to control; assay type: functional, organism-based; details: dose 25-50 mg/kg, time 14.0 day
[24] = target: NACHT, LRR and PYD domains-containing protein 3 (Mus musculus) (UniProt Q8R4B8); experiment: Inhibition of NLRP3 inflammasome activation in LPS/nigericin-treated mouse J774A.1 cells assessed as effect on pro-caspase-1 pre-treated for 1 hr at 1 to 5 uM measured after 1 hr of stimulation by Western blot analysis; details: J774.A1, dose 1-5 µM
J774.A1 [25] = experiment: Anti-pyroptosis activity against LPS/nigericin-induced mouse […] cells pre-treated for 1 hr at 1 to 5 uM measured after 1 hr of stimulation; assay type: functional, cell-based; details: dose 1-5 µM
J774.A1 [26] = experiment: Inhibition of mitochondrial reactive oxygen species generation in LPS/nigericin-induced mouse J774.A1 cells pre-treated for 1 hr at 1 to 5 uM measured after 1 hr of stimulation by MitoSOX Red fluorescence microplate-reader relative to control; assay type: functional; details: dose 1-5 µM, time 2.0 hrs
J774.A1 [27] = experiment: Inhibition of IL-1 beta release in LPS/nigericin-induced mouse J774.A1 cells pre-treated for 1 hr at 1 to 5 uM measured after 1 hr of stimulation by Western blot analysis; assay type: functional; details: dose 1-5 µM, time 2.0 hrs

Sequence of NACHT, LRR and PYD domains-containing protein 3 (Mus musculus) (Q8R4B8 whole entry, the tested form may be a part): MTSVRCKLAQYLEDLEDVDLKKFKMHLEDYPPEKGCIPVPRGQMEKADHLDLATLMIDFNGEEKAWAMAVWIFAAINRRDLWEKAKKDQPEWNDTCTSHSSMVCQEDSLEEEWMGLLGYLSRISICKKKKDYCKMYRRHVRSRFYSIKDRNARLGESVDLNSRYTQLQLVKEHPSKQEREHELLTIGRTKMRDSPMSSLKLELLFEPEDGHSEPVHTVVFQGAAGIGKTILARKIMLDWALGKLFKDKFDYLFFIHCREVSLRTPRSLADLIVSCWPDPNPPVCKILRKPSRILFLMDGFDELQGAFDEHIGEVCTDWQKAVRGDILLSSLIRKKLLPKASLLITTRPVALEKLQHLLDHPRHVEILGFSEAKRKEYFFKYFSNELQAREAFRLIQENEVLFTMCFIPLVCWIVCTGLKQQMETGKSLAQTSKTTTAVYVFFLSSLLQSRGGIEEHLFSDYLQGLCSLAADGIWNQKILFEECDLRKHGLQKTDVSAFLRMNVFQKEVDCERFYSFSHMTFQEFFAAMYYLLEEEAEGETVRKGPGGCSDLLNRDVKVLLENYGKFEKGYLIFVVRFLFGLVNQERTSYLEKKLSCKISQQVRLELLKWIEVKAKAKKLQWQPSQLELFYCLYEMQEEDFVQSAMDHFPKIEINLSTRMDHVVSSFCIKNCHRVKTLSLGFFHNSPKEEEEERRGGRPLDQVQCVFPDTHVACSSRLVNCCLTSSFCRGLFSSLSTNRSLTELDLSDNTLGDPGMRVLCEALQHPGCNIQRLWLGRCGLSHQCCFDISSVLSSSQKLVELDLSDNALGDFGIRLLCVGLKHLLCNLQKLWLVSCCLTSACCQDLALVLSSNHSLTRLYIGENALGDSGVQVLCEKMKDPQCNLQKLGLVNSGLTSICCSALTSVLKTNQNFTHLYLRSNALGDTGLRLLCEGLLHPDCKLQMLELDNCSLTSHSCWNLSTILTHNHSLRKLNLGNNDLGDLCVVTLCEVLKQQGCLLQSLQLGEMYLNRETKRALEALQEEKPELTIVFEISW
T1 sequence (Q8R4B8 whole entry, the tested form may be a part): as above
Sequence of NLR family CARD domain-containing protein 4 (Mus musculus) (Q3UP24 whole entry, the tested form may be a part): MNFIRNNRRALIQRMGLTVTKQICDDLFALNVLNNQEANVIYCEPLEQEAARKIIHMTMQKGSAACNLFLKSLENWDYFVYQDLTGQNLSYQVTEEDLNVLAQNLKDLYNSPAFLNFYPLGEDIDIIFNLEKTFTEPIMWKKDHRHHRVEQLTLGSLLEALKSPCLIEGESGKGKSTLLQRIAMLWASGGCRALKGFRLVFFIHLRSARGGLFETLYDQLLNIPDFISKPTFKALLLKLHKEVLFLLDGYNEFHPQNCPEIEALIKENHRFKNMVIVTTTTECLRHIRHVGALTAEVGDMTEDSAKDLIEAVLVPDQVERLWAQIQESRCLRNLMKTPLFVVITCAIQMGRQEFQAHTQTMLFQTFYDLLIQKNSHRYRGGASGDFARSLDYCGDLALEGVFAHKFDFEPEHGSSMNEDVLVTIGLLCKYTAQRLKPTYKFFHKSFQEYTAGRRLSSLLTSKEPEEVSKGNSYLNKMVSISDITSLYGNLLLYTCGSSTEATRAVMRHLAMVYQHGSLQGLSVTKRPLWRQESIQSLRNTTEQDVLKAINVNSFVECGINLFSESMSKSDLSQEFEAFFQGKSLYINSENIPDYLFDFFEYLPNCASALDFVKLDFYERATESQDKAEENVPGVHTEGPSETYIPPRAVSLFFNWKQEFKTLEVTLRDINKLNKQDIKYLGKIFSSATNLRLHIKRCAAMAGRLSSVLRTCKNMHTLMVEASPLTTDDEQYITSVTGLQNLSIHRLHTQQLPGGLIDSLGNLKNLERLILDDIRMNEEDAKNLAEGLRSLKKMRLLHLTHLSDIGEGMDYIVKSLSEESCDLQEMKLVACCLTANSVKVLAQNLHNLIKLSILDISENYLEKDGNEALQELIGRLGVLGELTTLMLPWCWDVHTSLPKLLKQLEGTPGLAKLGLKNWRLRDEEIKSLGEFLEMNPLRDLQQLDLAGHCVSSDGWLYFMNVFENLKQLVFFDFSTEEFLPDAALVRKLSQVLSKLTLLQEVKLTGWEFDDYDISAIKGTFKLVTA

CSc1ccc(C(=O)/C=C/c2ccc3c(c2)CCO3)cc1
IC50 [1]: 24.2 µM

Cc1cc(/C=C/C(=O)c2ccc(Cl)cc2)cc(C)c1O
IC50 [1]: 3.9 µM

CSc1ccc(C(=O)/C=C/c2cc(C)c(OCCCCC(=O)O)c(C)c2)cc1
IC50 [1]: 28.9 µM

Cc1ccc(-c2ccc(C(=O)/C=C/c3cc(C)c(O)c(C)c3)cc2)s1
IC50 [1]: > 40 µM

CCCNC(=O)Oc1c(C)cc(/C=C/C(=O)c2ccc(SC)cc2)cc1C
IC50 [1]: 22.3 µM

CSc1ccc(C(=O)/C=C/c2cc(C)c(OCCCN3CCOCC3)c(C)c2)cc1
IC50 [1]: 21.9 µM

CSc1ccc(C(=O)/C=C/c2cc(C)c(O)cc2C)cc1
IC50 [1]: 5.3 µM

CSc1ccc(C(=O)/C=C/c2ccc(O)cc2)cc1
IC50 [1]: 14.6 µM

COc1cc(/C=C/C(=O)c2ccc(SC)cc2)ccc1O
IC50 [1]: 10 µM

CSc1ccc(C(=O)/C=C/c2ccc(O)cc2F)cc1
IC50 [1]: 12.7 µM

CCc1cc(/C=C/C(=O)c2ccc(SC)cc2)cc(CC)c1O
IC50 [1]: 11.7 µM

CSc1ccc(C(=O)/C=C/c2ccc(O)c(F)c2)cc1
IC50 [1]: 10.7 µM

CSc1ccc(C(=O)/C=C/c2cc(C)c(O)c(C)c2)cc1
IC50 [1]: 2.1 µM | CC50 at 24 h [2]: 86.2 µM | Selectivity Index [3]: 41 | Stabilty [4]: Stable

CSc1ccc(C(=O)/C=C/c2cc(C)c(OCC(=O)O)c(C)c2)cc1
IC50 [1]: > 40 µM

COc1c(C)cc(/C=C/C(=O)c2ccc(NC(=O)Nc3ccc(F)cc3)cc2)cc1C
IC50 [1]: 23.5 µM

C=C(COc1c(C)cc(/C=C/C(=O)c2ccc(SC)cc2)cc1C)C(=O)O
IC50 [1]: > 40 µM

Cc1cc(/C=C/C(=O)c2ccc(S(C)(=O)=O)cc2)cc(C)c1O
IC50 [1]: 12.9 µM

COc1c(C)cc(/C=C/C(=O)c2ccc(N)cc2)cc1C
IC50 [1]: 5.7 µM

CSc1ccc(C(=O)/C=C/c2ccc(O)c(O)c2)cc1
IC50 [1]: 1.6 µM | solubility [5]: Insoluble

CSc1ccc(C(=O)/C=C/c2ccc(O)c(Cl)c2)cc1
IC50 [1]: 9.7 µM

Cc1cc(/C=C/C(=O)c2ccc(I)cc2)cc(C)c1O
IC50 [1]: 28.6 µM

CSc1ccc(C(=O)/C=C/c2cc(C)c(OC(C)(C)C(=O)O)c(C)c2)cc1 [ELAFIBRANOR]
IC50 [1]: 39.6 µM | CC50 at 24 h [2]: 142 µM | Selectivity Index [3]: 3.6

CCN(CC)C(=S)SSC(=S)N(CC)CC [DISULFIRAM]
IC50 [1]: 3 µM

CSc1ccc(C(=O)/C=C/c2ccc(O)c(C)c2)cc1
IC50 [1]: 8.8 µM

CSc1ccc(C(=O)/C=C/c2ccc(C(=O)O)cc2)cc1
IC50 [1]: 3.5 µM

Cc1cc(/C=C/C(=O)c2ccc(NS(=O)(=O)NC(C)C)cc2)cc(C)c1O
IC50 [1]: 3.4 µM

COc1c(C)cc(/C=C/C(=O)c2ccc(N(C)C)cc2)cc1C
IC50 [1]: 25.9 µM

O=C(O)c1ccc(/C=C2\SC(=S)N(Cc3cccc(C(F)(F)F)c3)C2=O)cc1
IC50 [6]: 1 µM

COc1cc(/C=C/C(=O)c2ccc(SC)cc2)cc(OC)c1O
IC50 [1]: > 40 µM

Cc1cc(/C=C/C(=O)c2ccc(NS(=O)(=O)c3ccc(F)cc3)cc2)cc(C)c1O
IC50 [1]: 5 µM

COc1c(C)cc(/C=C/C(=O)c2ccc(NC(=O)Nc3ccc(C)cc3)cc2)cc1C
IC50 [1]: 38.7 µM

Cc1cc(/C=C/C(=O)c2ccc(-c3ccccc3)cc2)cc(C)c1O
IC50 [1]: 29.4 µM

CCC(Oc1c(C)cc(/C=C/C(=O)c2ccc(SC)cc2)cc1C)C(=O)O (stereo not drawn)
IC50 [1]: 31.7 µM

COc1c(C)cc(/C=C/C(=O)c2ccc(SC)cc2)cc1C
IC50 [1]: 49.5 µM

CSc1ccc(C(=O)/C=C/c2c(C)cc(O)cc2C)cc1
IC50 [1]: > 40 µM

COc1c(C)cc(/C=C/C(=O)c2ccc(NC(=O)NC(C)C)cc2)cc1C
IC50 [1]: 33.2 µM

CSc1ccc(C(=O)/C=C/c2cc(C)c(OCCO)c(C)c2)cc1
IC50 [1]: 12.7 µM

Cc1cc(/C=C/C(=O)c2ccc(-c3cccs3)cc2)cc(C)c1O
IC50 [1]: > 40 µM

CCCNC(=O)Nc1ccc(C(=O)/C=C/c2cc(C)c(OC)c(C)c2)cc1
IC50 [1]: 9.6 µM

Cc1cc(/C=C/C(=O)c2ccc(F)cc2)cc(C)c1O
IC50 [1]: 12.3 µM

Cc1cc(/C=C/C(=O)c2ccc([S+](C)[O-])cc2)cc(C)c1O (stereo not drawn)
IC50 [1]: 10.6 µM

C=CC(=O)Nc1ccc(C(=O)/C=C/c2cc(C)c(O)c(C)c2)cc1
IC50 [1]: 1.3 µM | Activity (J774.A1 [7]): Non-Toxic | Activity (J774.A1 [8]): Toxic | CC50 at 24 h [2]: 156 µM | Selectivity Index [3]: 119.7 | inhibition [9]: Dose-Dependent Effect | inhibition [10]: Dose-Dependent Effect | inhibition [11]: Dose-Dependent Effect | inhibition [12]: inactive | inhibition [13]: inactive | inhibition [14]: inactive | inhibition [15]: inactive | inhibition [16]: inactive | inhibition (J774.A1 [17]): Active | inhibition (J774.A1 [18]): Active | Activity (Mus musculus [19]): Dose-Dependent Effect | Activity (Mus musculus [20]): Dose-Dependent Effect | Activity (Mus musculus [21]): Active | Activity (Mus musculus [22]): Active | Activity (Mus musculus [23]): Active | Stabilty [4]: Stable | Activity [24]: inactive | Activity (J774.A1 [25]): Active | inhibition (J774.A1 [26]): Active | inhibition (J774.A1 [27]): Active

CS(=O)(=O)CCC#N [DAPANSUTRILE]
IC50 [1]: 0.1 µM
